Legend:
[1] = tested on: Chinese hamster cells; settings: long exposure times; cited from earlier work
[2] = tested on: rat hepatocyte; settings: cited from earlier work
[3] = cited from earlier work
[4] = tested on: rats; settings: two-year study, oral administration; cited from earlier work
[5] = hypertensive patients; intravenous infusion; cited from earlier work
[6] = tested on: human lymphocytes; settings: cited from earlier work
[7] = tested on: rat bone marrow; settings: in vivo; cited from earlier work
[8] = tested on: mouse bone marrow; settings: in vivo; cited from earlier work
[9] = Case studies, oral minoxidil in male patients with androgenetic alopecia (blood pressure, heart rate, hair growth); settings: person
[10] = cited from earlier work; remark: listed apart in the source
[11] = tested on: mice; settings: dietary up to 2 years, cited from earlier work

In the case of `Nc1cc(N2CCCCC2)nc(N)[n+]1[O-]` [minoxidil], the cytogenetic assay result [1] is given as “equivocal”, the mutagenicity [2] is given as “not mutagenic” and the “effect on blood pressure” value ([3]; normotensive healthy volunteers, 2.5 mg, 5 mg, or 10 mg oral) is given as “little effect on blood pressure”. For the same compound, the “fraction of oral dose metabolized” value ([3]; primarily conjugation with glucuronic acid) was “About 90%”, the carcinogenicity findings [4] was “no positive findings” and the “steady state plasma concentration associated with significant (>5 beats per minute) changes in heart rate” value [5] was “above 20 ng/mL”. For the same compound, the cytogenetic assay result [6] was “negative”, the mutagenicity [7] was “not mutagenic” and the mutagenicity [8] was “not mutagenic”. For the same compound, the adverse events ([9]; 0.625 mg four times a day) was “No unwanted hair growth or other adverse events were noticed”, the “reductions in blood pressure” value ([9]; 0.625 mg four times a day) was “did not experience significant reductions in blood pressure” and the adverse events ([9]; 1.25 mg QID) was “No unwanted hair growth or other adverse events, including any cardiac effects, were noticed”. For the same compound, the “temporary decrease in hematocrit, hemoglobin, and erythrocyte count” value ([10]; chronic therapy for severe hypertension, initially) was “approximately 7%”, the “patients exhibiting ECG alterations of T waves” value ([10]; soon after starting therapy) was “approximately 60%” and the “incidence of malignant lymphomas” value ([11]; females, all dose levels (10, 25, and 63 mg/kg/day)) was “increased incidence of malignant lymphomas in females”. For the same compound, the “incidence of hepatic nodules” value ([11]; males, 63 mg/kg/day) was “increased incidence of hepatic nodules in males”.
